Test results as given in US20110306641A1, “NOVEL 2,6-SUBSTITUTED-3-NITROPYRIDINE DERIVATIVE, METHOD FOR PREPARING SAME, AND PHARMACEUTICAL PREPARATION INCLUDING SAME” (priority 2008, published 2011).

System: Calvarial cell
Experiment: Cytotoxicity test (MTT) in osteoblasts (calvarial cells)
Conditions: 1 μM, 72 hours, vs vehicle control
Description: Drugs were diluted to a concentration of 2 μM in α-MEM culture media supplemented with 10% FBS. The vehicle control group was established to contain 0.2% DMSO. 100 μL/well of the diluted drugs were dispensed into 96-well plates to which osteoblasts (calvarial cells) prepared in Experimental Example 1 were then added at a density of 1.0×10^4 cells/100 μL/well. Here, the final compound concentration in the cell culture was 1 μM, and the vehicle control group contained 0.1% DMSO. The cells were cultured in a 5% CO2 inhibitorr at 37° for 72 hours. 25 μL of 3-(4,5-dimethyl-2-thiazolyl)-2,5-diphenyl-2H-tetrazolium bromide (MTT) dissolved in PBS (2 mg/mL) was added to each cell culture 4 hours before the end of culture. After completion of the reaction, the plates were centrifuged, the media were discarded, and 100 μL of formazan was added and dissolved in dimethyl sulfoxide (DMSO). Finally, the absorbance of the developed plates was measured at 540 nm. The cell viability was expressed as % concentration in comparison with the vehicle control group.

SMILES | Cell viability (%) Calvarial cell
CN1CCN(c2ccc([N+](=O)[O-])c(Nc3ccc4cn[nH]c4c3)n2)CC1 [Compound 40, 2-(1H-indazol-6-yl)amino-6-(4-methylpiperazin-1-yl)-3-nitropyridine] | 95%
CN1CCN(Nc2ccc([N+](=O)[O-])c(Nc3ccc4[nH]ncc4c3)n2)CC1 [Compound 42, 2-(1H-indazol-5-yl)amino-6-[(4-methylpiperazin-1-yl)amino]-3-nitropyridine] | 106%
O=[N+]([O-])c1ccc(NCc2cccnc2)nc1Nc1ccc2[nH]ncc2c1 [Compound 45, 2-(1H-indazol-5-yl)amino-6-[(3-pyridyl)methylamino]-3-nitropyridine] | 103%
C[C@@H](CO)Nc1ccc([N+](=O)[O-])c(Nc2ccc3cn[nH]c3c2)n1 [Compound 18, 2-(1H-indazol-6-yl)amino-6-[(1-(S)-methyl-2-hydroxyethyl)-amino]-3-nitropyridine] | 98%
CC(C)(C)NNc1ccc([N+](=O)[O-])c(Nc2ccc3[nH]ncc3c2)n1 [Compound 43, 2-(1H-indazol-5-yl)amino-6-[(t-butylamino)amino]-3-nitropyridine] | 100%
CNc1ccc([N+](=O)[O-])c(Nc2ccc3cn[nH]c3c2)n1 [Compound 31, 2-(1H-indazol-6-yl)amino-6-(methylamino)-3-nitropyridine] | 97%
O=[N+]([O-])c1ccc(NCc2cccnc2)nc1Nc1ccc2cn[nH]c2c1 [Compound 46, 2-(1H-indazo-6-yl)amino-6-[(3-pyridyl)methylamino]-3-nitropyridine] | 99%
O=[N+]([O-])c1ccc(N2CCC(O)CC2)nc1Nc1ccc2cn[nH]c2c1 [Compound 41, 2-(1H-indazol-6-yl)amino-6-(4-hydroxypiperidino)-3-nitropyridine] | 98%
O=[N+]([O-])c1ccc(NCCc2c[nH]cn2)nc1Nc1ccc2[nH]ncc2c1 [Compound 48, 2-(1H-indazol-5-yl)amino-6-[(imidazol-4-yl)ethylamino]-3-nitropyridine] | 96%
NC1CCN(c2ccc([N+](=O)[O-])c(Nc3ccc4[nH]ncc4c3)n2)CC1 [Compound 51, 2-(1H-indazol-5-yl)amino-6-[(4-amino)piperidino]-3-nitropyridine] | 73%
